Experimental data reported in US20100324058A1 (Obschestvo S Organichennoi Otvetsttvennoctiyou "Bionika", priority 2007, published 2010).
Values belong to the molecule of their own block, whether it stands above or below them.

Biological target: thrombin (Homo sapiens, UniProt P00734)
Test: Effect of test compounds on thrombin activity: hydrolysis rate of chromogenic (Chromozim TH) or fluorogenic (BOC-Ala-Pro-Arg-AMC) substrate
Format: biochemical
Details: for inhibition at 0.1 µM: concentration of compound 100 nM; for inhibition at 0.2 µM: concentration of compound 200 nM; for inhibition at 0.02 µM: concentration of compound 20 nM; for inhibition at 0.04 µM: concentration of compound 40 nM; for inhibition at 0.0025 µM: concentration of compound 2.5 nM; for inhibition at 0.005 µM: concentration of compound 5 nM; for inhibition at 0.0125 µM: concentration of compound 12.5 nM; for inhibition at 0.025 µM: concentration of compound 25 nM; for inhibition at 0.05 µM: concentration of compound 50 nM; for inhibition at 0.125 µM: concentration of compound 125 nM; for inhibition at 0.25 µM: concentration of compound 250 nM; for inhibition at 0.01 µM: concentration of compound 10 nM
Excerpt: The effect of the synthesized substances on thrombin activity was studied by measuring the hydrolysis rate of specific low molecular weight substrates with thrombin in an aqueous buffering solution in the absence and presence of these compounds. One of these substrates was chromogenic substrate Chromozim TH (CTH): N-(p-Tosyl)-Gly-Pro-Arg-pNA [Sonder S A, Fenton J W 2nd. Thrombin Specificity with Tripeptide Chromogenic Substrates: Comparison of Human and Bovine Thrombins with and without Fibrinogen Clotting Activities. Clin. Chem., 1986, 32(6):934-937]. Another substrate that was used in a number of experiments was fluorogenic substrate BOC-Ala-Pro-Arg-AMC (S), wherein BOC is butoxycarbonyl residue, and AMC is 7-amino-4-methylcoumaryl [Kawabata S, Miura T, Morita T, Kato H, Fujikawa K, Ivanaga S, Takada K, Kimura T, Sakakibara S. Highly Sensitive peptide-4-methylcoumaryl-7-amide Substrates for Blood-Clotting Proteases and Trypsin. Eur. J. Biochem., 1988, 172(1):17-25].
The holes of a common 96-hole board were filled with a buffer containing 140 mM of NaCl, 20 mM of HEPES, and 0.1% polyethylene glycol (Mw=6,000), at pH=8.0. […] When a chromogenic substrate was used, accumulation of the colored reaction product—para-nitroaniline—was followed on a spectrophotometric Molecular Devices board reader (Thermomax, U.S.), measuring the increase in optical density on the 405 nm wavelength. […] The reaction kinetics was registered on a fluorometric Titertek Fluoroskan board reader (LabSystem, Finland).
The initial reaction rate was measured as the tangent of the kinetic curve inclination angle on a straight section (first 10 to 15 minutes of registration). Reaction rate without an inhibitor was a ssumed to be 100%. The mean arithmetic value of two independent measurements was used as the end result.

[1] = concentration of compound 0.5 mcM
[2] = concentration of compound 2 mcM
[3] = concentration of compound 5 mcM
[4] = concentration of compound 20 mcM
[5] = concentration of compound 50 mcM
[6] = concentration of compound 100 mcM
[7] = concentration of compound 1 mcM
[8] = concentration of compound 10 mcM
[9] = concentration of compound 2.5 mcM
[10] = concentration of compound 25 mcM
[11] = concentration of compound 250 mcM
[12] = concentration of compound 500 mcM
[13] = concentration of compound 0.25 mcM

Compound: Cc1cc(OCCCn2ccsc2=N)cc(OS(=O)(=O)c2ccccc2)c1
inhibition at 0.1 µM: 5%
inhibition at 0.2 µM: 10%
Hydrolysis rate inhibition, % [1]: 23%
Hydrolysis rate inhibition, % [2]: 57%
Hydrolysis rate inhibition, % [3]: 73%
Hydrolysis rate inhibition, % [4]: 95%
Hydrolysis rate inhibition, % [5]: 95%
Hydrolysis rate inhibition, % [6]: 96%
Hydrolysis rate inhibition, % (concentration of compound 200 mcM): 97%

Compound: Cc1cc(OCCC[n+]2ccc(N)cc2)cc(OS(=O)(=O)c2ccccc2)c1 [HC-016s-IOC, 4-amino-1-(3-(3-methyl-5-(benzenesulfonyloxy)phenoxy)propyl)-pyridinium iodide]
inhibition at 250 µM (concentration of compound 0.25 mM): 84%
inhibition at 500 µM (concentration of compound 0.5 mM): 100%

Compound: Cc1cc(OCCCSC(=N)N)cc(OS(=O)(=O)c2ccccc2)c1.I [HC-018s-IOC, 3-(3-methyl-5-(benzenesulfonyloxy)phenoxy)propyl-isothiouronium iodide]
inhibition at 0.02 µM: 16%
inhibition at 0.04 µM: 33%
inhibition at 0.1 µM: 49%
inhibition at 0.2 µM: 64%
Hydrolysis rate inhibition, % [1]: 93%
Hydrolysis rate inhibition, % [7]: 98%
Hydrolysis rate inhibition, % [2]: 100%
Hydrolysis rate inhibition, % [3]: 100%
Hydrolysis rate inhibition, % [8]: 100%
Hydrolysis rate inhibition, % [4]: 100%
Hydrolysis rate inhibition, % [5]: 100%
Hydrolysis rate inhibition, % [6]: 100%

Compound: Cc1cc(OCC[n+]2ccc(N)cc2)cc(OS(=O)(=O)c2ccccc2)c1 [HC-019s-IOC, 4-amino-1-(2-(3-methyl-5-(benzene Sulfonyloxy)phenoxy)ethyl)-pyridinium iodide]
inhibition at 0.0025 µM: 55%
inhibition at 0.005 µM: 88%
inhibition at 0.0125 µM: 90%
inhibition at 0.025 µM: 88%
inhibition at 0.05 µM: 95%
inhibition at 0.125 µM: 94%

Compound: Cc1cc(OCCSC(=N)N)cc(OS(=O)(=O)c2ccccc2)c1.I [HC-020s-IOC, 2-(3-methyl-5-(benzenesulfonyloxy)phenoxy)ethyl-isothioronium iodide]
inhibition at 0.005 µM: 54%
inhibition at 0.0125 µM: 46%
inhibition at 0.025 µM: 59%
inhibition at 0.05 µM: 68%
inhibition at 0.125 µM: 81%
inhibition at 0.25 µM: 94%
inhibition at 0.5 µM (concentration of compound 500 nM): 96%
Hydrolysis rate inhibition, % (concentration of compound 1.25 mcM): 98%
Hydrolysis rate inhibition, % [9]: 99%
Hydrolysis rate inhibition, % [3]: 99%

Hydrolysis rate inhibition, % [10]: 5%
Hydrolysis rate inhibition, % [6]: 8%
Hydrolysis rate inhibition, % [11]: 4%
Hydrolysis rate inhibition, % [12]: 4%
Compound: CN(C)c1cc[n+](CCc2nc3cc(S(=O)(=O)N(C)c4ccccc4)ccc3n2C)cc1.[Cl-] [HC-021s-IOC]

Hydrolysis rate inhibition, % [13]: 21%
Hydrolysis rate inhibition, % [1]: 18%
Hydrolysis rate inhibition, % [3]: 27%
Hydrolysis rate inhibition, % [10]: 34%
Hydrolysis rate inhibition, % [5]: 40%
Hydrolysis rate inhibition, % (concentration of compound 130 mcM): 36%
Hydrolysis rate inhibition, % [11]: 51%
Compound: CNc1ccc(S(=O)(=O)N(C)c2ccccc2)cc1NC(=O)CC[n+]1ccc(N(C)C)cc1.[Cl-] [HC-022s-IOC]

Compound: Cc1cc(OCCC[n+]2ccc(N)cc2)cc(OS(=O)(=O)c2ccccc2Cl)c1 [HC-023s-IOC, 4-AMINO-1-(3-(3-METHYL-5-(2-CHLOROBENZENE SULFONYLOXY)PHENOXY)PROPYL)-PYRIDINIUM IODIDE]
Hydrolysis rate inhibition, % (concentration of compound 0.7 mcM): 13%
Hydrolysis rate inhibition, % (concentration of compound 1.4 mcM): 34%
Hydrolysis rate inhibition, % (concentration of compound 3.4 mcM): 50%
Hydrolysis rate inhibition, % (concentration of compound 34 mcM): 86%
Hydrolysis rate inhibition, % (concentration of compound 68 mcM): 99%
Hydrolysis rate inhibition, % [11]: 100%

Compound: Cc1cc(OCC[n+]2ccc(N)cc2)cc(OS(=O)(=O)c2ccccc2Cl)c1 [HC-025s-IOC, 4-amino-1-(2-(3-methyl-5-(2-chlorobenzenesulfonyloxy)phenoxy)ethyl)-pyridinium iodide]
inhibition at 0.00125 µM (concentration of compound 1.25 nM): 69%
inhibition at 0.0025 µM: 52%
inhibition at 0.0063 µM (concentration of compound 6.3 nM): 70%
inhibition at 0.0125 µM: 81%
inhibition at 0.05 µM: 96%
inhibition at 0.125 µM: 98%

Compound: Cc1cc(OCCCSC(=N)N)cc(OS(=O)(=O)c2ccccc2Cl)c1 [HC-026s-IOC, 3-(3-methyl-5-(2-chlorobenzenesulfonyloxy)phenoxy)propyl-isothiouronium iodide]
inhibition at 0.005 µM: 47%
inhibition at 0.0125 µM: 40%
inhibition at 0.025 µM: 64%
inhibition at 0.125 µM: 68%

Hydrolysis rate inhibition, % [13]: 11%
Hydrolysis rate inhibition, % [1]: 6%
Hydrolysis rate inhibition, % [9]: 24%
Hydrolysis rate inhibition, % [3]: 24%
Hydrolysis rate inhibition, % [8]: 59%
Hydrolysis rate inhibition, % [10]: 72%
Hydrolysis rate inhibition, % [5]: 88%
Hydrolysis rate inhibition, % [6]: 100%
Hydrolysis rate inhibition, % [11]: 100%
Hydrolysis rate inhibition, % [12]: 100%
Compound: CN(c1ccccc1)S(=O)(=O)c1ccc2c(c1)nc(CC[n+]1ccc(N)cc1)n2C.[Cl-] [HC_027s_IOC]

Hydrolysis rate inhibition, % (concentration of compound 0.1 mcM): 15%
Hydrolysis rate inhibition, % [13]: 34%
Hydrolysis rate inhibition, % [1]: 46%
Hydrolysis rate inhibition, % [7]: 44%
Hydrolysis rate inhibition, % [9]: 63%
Hydrolysis rate inhibition, % [3]: 78%
Hydrolysis rate inhibition, % [10]: 95%
Hydrolysis rate inhibition, % [5]: 95%
Hydrolysis rate inhibition, % [11]: 100%
Hydrolysis rate inhibition, % [12]: 100%
Compound: CNc1ccc(S(=O)(=O)N(C)c2ccccc2)cc1NC(=O)CC[n+]1ccc(N)cc1.[Cl-] [HC_028s_IOC]

Compound: Cc1cc(OCCC[n+]2ccc(N)cc2)cc(OS(=O)(=O)c2ccccc2F)c1.[I-] [HC_029s_IOC]
inhibition at 0.05 µM: 8%
inhibition at 0.1 µM: 14%
inhibition at 0.25 µM: 16%
Hydrolysis rate inhibition, % [1]: 25%
Hydrolysis rate inhibition, % [7]: 54%
Hydrolysis rate inhibition, % [9]: 75%
Hydrolysis rate inhibition, % [3]: 81%

Compound: Cc1cc(OCCC[n+]2ccsc2N)cc(OS(=O)(=O)c2ccccc2F)c1.[I-] [HC_030s_IOC]
inhibition at 0.02 µM: 5%
inhibition at 0.05 µM: 18%
Hydrolysis rate inhibition, % [2]: 72%
Hydrolysis rate inhibition, % [3]: 88%
Hydrolysis rate inhibition, % [8]: 93%

Compound: Cc1cc(OCCCSC(=N)N)cc(OS(=O)(=O)c2ccccc2F)c1.I [HC_031s_IOC]
inhibition at 0.005 µM: 35%
inhibition at 0.01 µM: 43%
inhibition at 0.02 µM: 49%
inhibition at 0.05 µM: 59%
inhibition at 0.1 µM: 73%
Hydrolysis rate inhibition, % [2]: 99%
Hydrolysis rate inhibition, % [3]: 100%

Compound: C/N=C(/N)SCCCOc1cc(C)cc(OS(=O)(=O)c2ccccc2Cl)c1.I [HC_032s_IOC]
inhibition at 0.05 µM: 10%
inhibition at 0.1 µM: 17%
Hydrolysis rate inhibition, % [3]: 48%
Hydrolysis rate inhibition, % [8]: 71%

Compound: C/N=C(/N)SCCOc1cc(C)cc(OS(=O)(=O)c2ccccc2Cl)c1.I [HC_033s_IOC]
inhibition at 0.004 µM (concentration of compound 4 nM): 18%
inhibition at 0.01 µM: 23%
inhibition at 0.02 µM: 24%
inhibition at 0.04 µM: 62%
inhibition at 0.1 µM: 59%
inhibition at 0.2 µM: 74%
Hydrolysis rate inhibition, % (concentration of compound 4 mcM): 100%

inhibition at 0.0025 µM: 29%
inhibition at 0.005 µM: 28%
inhibition at 0.025 µM: 79%
inhibition at 0.05 µM: 88%
Hydrolysis rate inhibition, % [9]: 96%
Compound: Cc1cc(OCC[n+]2ccc(N)cc2)cc(OS(=O)(=O)c2ccccc2S(C)(=O)=O)c1 [HC_036s_IOC]

inhibition at 0.0025 µM: 43%
inhibition at 0.005 µM: 59%
inhibition at 0.025 µM: 82%
inhibition at 0.05 µM: 86%
Hydrolysis rate inhibition, % [9]: 89%
Compound: Cc1cc(OCC[n+]2ccc(N)cc2)cc(OS(=O)(=O)c2ccccc2F)c1 [HC_037s_IOC]

inhibition at 0.005 µM: 47%
inhibition at 0.025 µM: 56%
inhibition at 0.05 µM: 85%
Hydrolysis rate inhibition, % [9]: 96%
Compound: Cc1ccc(S(=O)(=O)Oc2cc(C)cc(OCC[n+]3ccc(N)cc3)c2)cc1 [HC_038s_IOC]
